Literature values in patent publication US10195128B2, “Oral care compositions” (Colgate-Palmolive Company, priority 2016, dated 2019).

Settings: oral or intraperitoneal administration; after consumption

SMILES: COc1cc(CCC(C)=O)ccc1O [zingerone, 4-(3-methoxy-4-hydroxyphenyl)-butan-2-one]
- Time to excretion of glucuronide compounds and sulphate conjugates in urine: ≤ 24 h
